Laboratory results as given in patent US20250059164A1, “IRAK DEGRADERS AND USES THEREOF” (Kymera Therapeutics, Inc., priority 2023, published 2025).

Target: T1, IRAK4 (Homo sapiens, UniProt Q9NWZ3)
T1 construct: endogenous in cells; host or cells: OCI-LY10
T1 sequence (Q9NWZ3 1-460): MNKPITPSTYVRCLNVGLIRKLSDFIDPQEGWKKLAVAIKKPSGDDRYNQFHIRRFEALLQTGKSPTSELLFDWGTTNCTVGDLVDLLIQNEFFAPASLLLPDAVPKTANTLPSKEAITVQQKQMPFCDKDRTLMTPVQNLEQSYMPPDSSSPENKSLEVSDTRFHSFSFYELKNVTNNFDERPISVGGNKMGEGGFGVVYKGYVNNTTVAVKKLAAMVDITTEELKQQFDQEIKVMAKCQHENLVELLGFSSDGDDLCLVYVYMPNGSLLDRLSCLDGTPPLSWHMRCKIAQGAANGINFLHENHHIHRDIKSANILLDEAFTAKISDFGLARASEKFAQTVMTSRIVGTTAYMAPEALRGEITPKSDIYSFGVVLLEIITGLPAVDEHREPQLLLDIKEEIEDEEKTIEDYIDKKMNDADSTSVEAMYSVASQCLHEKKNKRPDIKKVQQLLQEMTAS
Experiment: IRAK4 MSD degradation in OCI-LY10
Type: cell-based
Details: OCI-LY10 cells, 24 hrs, Meso Scale Discovery
Description: Degradation of IRAK4 in OCI-LY10 was quantitatively measured using Meso Scale Discovery technology. […] Compounds were then added to the assay plates with a final top concentration of 1 to 10 μM in a 1:3 dilution series with total of 8 doses. The assay plates were then incubated for 4 to 24 hours at 37° C. under 5% CO2. […] To prepare MSD assay plates (Meso Scale Discovery Catalog number L15XA-3), the plates were coated with 2 μg/mL capture antibody (mouse Anti-IRAK4 antibody [2H9], ab119942) in PBS, at 40 μL/well. […] Cell lysates were then added to MSD assay plates and the plates were incubated at room temperature for 1 hour. The plates were then washed 3 times with 150 μL/well TBST buffer and 25 μL/well primary detection antibody (rabbit Anti-IRAK4 antibody [Y279], from Abcam. Catalog number ab32511, 1 μg/mL). The assay plates were then incubated at room temperature for 1 hour, washed 3 times with 150 μL/well TBST buffer and 25 μL/well secondary detection antibody, SULFO-TAG anti-rabbit antibody were added (anti-rabbit antibody from Meso Scale Discovery, Catalog number R32AB-1, 1 μg/mL). The assay plates were then incubated at room temperature for 1 hour, washed 3 times with 150 μL/well TBST buffer, and 150 μL/well MSD reading buffer (Meso Scale Discovery catalog number R92TC-2) was added. The plates were then analyzed by a MSD reader (Meso Scale Discovery, Model Quick Plex SQ 120). The data was then analyzed by software Prism 7.0 from GraphPad and the dose-depended IRAK4 degradation were fit using a three-parameter logistic equation to calculate DC50.
The letter codes for IRAK4 DC50 include: A (<0.01 μM); B (0.01 to <0.1 μM); C (0.1 to 0.2 μM); D (>0.2 μM) and E (not tested).

| Structure (SMILES) | DC50 |
| --- | --- |
| CN(C[C@H]1C[C@@H](n2cc(NC(=O)c3cnn4ccc(N5C[C@H]6C[C@@H]5CO6)nc34)c(C(F)F)n2)C1)[C@H]1CCN(c2cccc3c2n(C)c(=O)n3C2CCC(=O)NC2=O)C[C@@H]1F (single isomer, unassigned) [I-4] | < 10 nM |
| CN(C[C@H]1C[C@H](n2cc(NC(=O)c3cnn4ccc(N5C[C@H]6C[C@@H]5CO6)nc34)c(C(F)F)n2)C1)[C@H]1CCN(c2cccc3c2n(C)c(=O)n3C2CCC(=O)NC2=O)C[C@@H]1F (single isomer, unassigned) [I-6] | < 10 nM |
| Cn1c(=O)n(C2CCC(=O)NC2=O)c2cccc([C@H]3CCN(C[C@H]4CC[C@H](n5cc6cc(NC(=O)c7cccc(C(F)(F)F)n7)ccc6n5)CC4)C[C@@H]3F)c21 (single isomer, unassigned) [I-11] | < 10 nM |
| Cn1c(=O)n(C2CCC(=O)NC2=O)c2cccc([C@@H]3CCN(C[C@H]4CC[C@H](n5cc6cc(NC(=O)c7cccc(C(F)(F)F)n7)ccc6n5)CC4)C[C@H]3F)c21 (single isomer, unassigned) [I-12] | < 10 nM |
| CN(C[C@H]1CC[C@H](n2cc(NC(=O)c3cnn4ccc(N5C[C@H]6C[C@@H]5CO6)nc34)c(C(F)F)n2)CC1)[C@@H]1CCN(c2cccc3c2n(C)c(=O)n3C2CCC(=O)NC2=O)C[C@@H]1F (single isomer, unassigned) [I-29] | < 10 nM |
| CN(C[C@H]1CC[C@H](n2cc3cc(NC(=O)c4cccc(C(F)(F)F)n4)ncc3n2)CC1)[C@H]1CCN(c2cccc3c2n(C)c(=O)n3C2CCC(=O)NC2=O)C[C@@H]1F (single isomer, unassigned) [I-36] | 10 to 100 nM |
| CN(C[C@H]1C[C@H](n2cc(NC(=O)c3cnn4ccc(N5C[C@H]6C[C@@H]5CO6)nc34)c(C(F)F)n2)C1)[C@@H]1CCN(c2cccc3c2n(C)c(=O)n3C2CCC(=O)NC2=O)C[C@@H]1F (single isomer, unassigned) [I-59] | < 10 nM |
| CN(C[C@H]1C[C@H](n2cc(NC(=O)c3cnn4ccc(N5C[C@H]6C[C@@H]5CO6)nc34)c(C(F)F)n2)C1)[C@H]1CCN(c2cccc3c2n(C)c(=O)n3C2CCC(=O)NC2=O)C[C@H]1F (single isomer, unassigned) [I-60] | < 10 nM |
| O=C1CCC(Nc2ccc(N3CC(CO[C@@H]4CCN(C[C@H]5CC[C@H](n6cc(NC(=O)c7cnn8ccc(N9C[C@H]%10C[C@@H]9CO%10)nc78)c(C(F)F)n6)CC5)C[C@@H]4F)C3)cc2)C(=O)N1 (single isomer, unassigned) [I-73] | 10 to 100 nM |
| O=C1CCN(c2cncc3c(N4CC(CO[C@H]5CCN(C[C@H]6CC[C@H](n7cc(NC(=O)c8cnn9ccc(N%10C[C@H]%11C[C@@H]%10CO%11)nc89)c(C(F)F)n7)CC6)C[C@@H]5F)C4)cccc23)C(=O)N1 (single isomer, unassigned) [I-75] | 10 to 100 nM |
| COc1cc2nc([C@H]3CC[C@H](CN4CC[C@@H](c5cccc6c5n(C)c(=O)n6C5CCC(=O)NC5=O)[C@H](F)C4)CC3)sc2cc1NC(=O)c1cccc(C(F)(F)F)n1 (single isomer, unassigned) [I-78] | 100 to 200 nM |
| COc1cc2nc([C@H]3CC[C@H](CN4CC[C@H](c5cccc6c5n(C)c(=O)n6C5CCC(=O)NC5=O)[C@@H](F)C4)CC3)sc2cc1NC(=O)c1cccc(C(F)(F)F)n1 (single isomer, unassigned) [I-79] | > 200 nM |
| O=C1CCC(Nc2ccc(N3CC(CO[C@H]4CCN(C[C@H]5CC[C@H](n6cc(NC(=O)c7cnn8ccc(N9C[C@H]%10C[C@@H]9CO%10)nc78)c(C(F)F)n6)CC5)C[C@@H]4F)C3)cc2)C(=O)N1 (single isomer, unassigned) [I-85] | 10 to 100 nM |
| COc1cc2nc([C@H]3CC[C@H](CN4CC[C@H](c5cccc6c5n(C)c(=O)n6C5CCC(=O)NC5=O)[C@@H](F)C4)CC3)oc2cc1NC(=O)c1cccc(C(F)(F)F)n1 (single isomer, unassigned) [I-89] | > 200 nM |
| Cn1c(=O)n(C2CCC(=O)NC2=O)c2cccc([C@@H]3CCN(C[C@H]4CC[C@H](n5cc6cc(NC(=O)c7cccc(C(F)(F)F)n7)c(C#N)cc6n5)CC4)C[C@H]3F)c21 (single isomer, unassigned) [I-95] | < 10 nM |
| Cn1c(=O)n(C2CCC(=O)NC2=O)c2cccc([C@H]3CCN(C[C@H]4CC[C@H](n5cc6cc(NC(=O)c7cccc(C(F)(F)F)n7)c(C#N)cc6n5)CC4)C[C@@H]3F)c21 (single isomer, unassigned) [I-96] | < 10 nM |

| Structure (SMILES) | DC50 |
| --- | --- |
| COc1cc2nc([C@H]3CC[C@H](CN(C)[C@@H]4CCN(c5cccc6c5n(C)c(=O)n6C5CCC(=O)NC5=O)C[C@H]4F)CC3)sc2cc1NC(=O)c1cccc(C(F)(F)F)n1 (single isomer, unassigned) [I-98] | 10 to 100 nM |
| COc1cc2nc([C@H]3CC[C@H](CN(C)[C@@H]4CCN(c5cccc6c5n(C)c(=O)n6C5CCC(=O)NC5=O)C[C@@H]4F)CC3)sc2cc1NC(=O)c1cccc(C(F)(F)F)n1 (single isomer, unassigned) [I-99] | < 10 nM |
| COc1cc2nn([C@H]3CC[C@H](CN4CC[C@H](c5cccc6c5n(C)c(=O)n6C5CCC(=O)NC5=O)[C@@H](F)C4)CC3)cc2cc1NC(=O)c1cncc(C#N)c1 (single isomer, unassigned) [I-100] | < 10 nM |
| COc1cc2nn([C@H]3CC[C@H](CN4CC[C@@H](c5cccc6c5n(C)c(=O)n6C5CCC(=O)NC5=O)[C@H](F)C4)CC3)cc2cc1NC(=O)c1cncc(C#N)c1 (single isomer, unassigned) [I-101] | < 10 nM |
| COc1cc2nc([C@H]3CC[C@H](CN4CC[C@@H](c5cccc6c5n(C)c(=O)n6C5CCC(=O)NC5=O)[C@H](F)C4)CC3)oc2cc1NC(=O)c1cccc(C(F)(F)F)n1 (single isomer, unassigned) [I-121] | 10 to 100 nM |
| CN(C[C@H]1CC[C@H](n2cc(NC(=O)c3cnn4ccc(N5C[C@H]6C[C@@H]5CO6)nc34)c(C(F)F)n2)CC1)[C@H]1CCN(c2cccc3c2n(C)c(=O)n3[C@@H]2CCC(=O)NC2=O)C[C@@H]1F (single isomer, unassigned) [I-143] | < 10 nM |
| CN(C[C@H]1CC[C@H](n2cc(NC(=O)c3cnn4ccc(N5C[C@H]6C[C@@H]5CO6)nc34)c(C(F)F)n2)CC1)[C@H]1CCN(c2cccc3c2n(C)c(=O)n3[C@H]2CCC(=O)NC2=O)C[C@@H]1F (single isomer, unassigned) [I-144] | < 10 nM |
| CN(C[C@H]1CC[C@H](n2cc(NC(=O)c3cnn4cccnc34)c(C(F)F)n2)CC1)[C@H]1CCN(c2cccc3c2n(C)c(=O)n3C2CCC(=O)NC2=O)C[C@H]1F (single isomer, unassigned) [I-145] | < 10 nM |
| COc1ccc2c(c1N1CC[C@H](N(C)C[C@H]3CC[C@H](n4cc(NC(=O)c5cnn6cccnc56)c(C(F)F)n4)CC3)[C@@H](F)C1)n(C)c(=O)n2C1CCC(=O)NC1=O (single isomer, unassigned) [I-146] | < 10 nM |
| COc1ccc2c(c1N1CC[C@H](N(C)C[C@H]3CC[C@H](n4cc(NC(=O)c5cnn6cccnc56)c(C(F)F)n4)CC3)[C@H](F)C1)n(C)c(=O)n2C1CCC(=O)NC1=O (single isomer, unassigned) [I-147] | < 10 nM |
| COc1ccc2c(c1N1CC[C@@H](N(C)C[C@H]3CC[C@H](n4cc(NC(=O)c5cnn6cccnc56)c(C(F)F)n4)CC3)[C@H](F)C1)n(C)c(=O)n2C1CCC(=O)NC1=O (single isomer, unassigned) [I-152] | < 10 nM |
| COc1ccc2c(c1N1CC[C@@H](N(C)C[C@H]3CC[C@H](n4cc(NC(=O)c5cnn6cccnc56)c(C(F)F)n4)CC3)[C@@H](F)C1)n(C)c(=O)n2C1CCC(=O)NC1=O (single isomer, unassigned) [I-153] | < 10 nM |
| Cn1c(=O)n(C2CCC(=O)NC2=O)c2cccc([C@@H]3CCN(C[C@H]4CC[C@H](n5cc6cc(NC(=O)c7cncc(C(F)(F)F)n7)ccc6n5)CC4)CC3(F)F)c21 (single isomer, unassigned) [I-179] | < 10 nM |
| COc1ccc2c(c1N1CC[C@@H](N(C)C[C@H]3CC[C@H](n4cc(NC(=O)c5cnn6cccnc56)c(C(F)F)n4)CC3)C(F)(F)C1)n(C)c(=O)n2C1CCC(=O)NC1=O (single isomer, unassigned) [I-204] | 10 to 100 nM |
| CN(C[C@H]1CC[C@H](c2cc3cc(NC(=O)c4cncc(C(F)(F)F)n4)ccn3n2)CC1)[C@@H]1CCN(c2cccc3c2n(C)c(=O)n3C2CCC(=O)NC2=O)C[C@@H]1F (single isomer, unassigned) [I-211] | > 200 nM |
